Source: patent US20090227507A1, “Angiotensin (1-7) Dosage Forms and Uses Thereof” (UNIVERSITY OF SOUTHERN CALIFORNIA, priority 2008, published 2009)

Columns and labels:
[1] = tested on: CD4 cells in peripheral blood; assay: Flow cytometry of peripheral blood, CD4 lymphocytes; USB003 SC once daily for 7 days in healthy men; type: in vivo, human; set-up: key to Subjects with shift, Absolute CD4, N-L (normal to low) / Subjects with shift, Absolute CD4, N-H (normal to high) / Subjects with shift, Absolute CD4, H-N (high to normal) / Subjects with shift, Absolute CD4, L-N (low to normal): — signifies subject with no shift from baseline; conditions: for CD4, Absolute, Mean at Baseline: Baseline (Day 1)
Description: (§1) • Single-center, randomized, double-blind, placebo-controlled, 2 cohort dose-escalation trial of once daily dosing over a 7-day period (7 doses total): • Cohort 1: 2 subjects treated with placebo and 8 subjects treated with 200 μg/kg USB003 (A(1-7)) • Cohort 2: 2 subjects treated with placebo and 8 subjects treated with 300 μg/kg USB003 • For each cohort, there was a Screening Period, Treatment Phase, Follow-up Period, and Study Termination or Early Withdrawal Day. Subjects were confined to the study unit during the Treatment Phase. • Cohort 2 was treated approximately 1 week after completion of the Treatment Phase for Cohort 1 to allow time for the assessment of safety and tolerability in the first cohort.
(§2) Pharmacological Effect: The following evaluations (under efficacy and safety in the protocol) were performed: • Effects on the number of mature blood cells: • 1. CBC (with differential), platelet count, reticulocyte count. • Effects on early hematopoietic progenitor cells and mature lymphocyte subsets in the periphery: • 1. Flow cytometry to evaluate frequency of peripheral blood progenitor cells (eg, CD34^+) and lymphocyte subsets (eg, CD3, CD4, CD8) in peripheral blood. • 2. Collection of blood for later possible culture for progenitor cells (eg, colony forming units-granulocyte/macrophage [CFU-GM]) to evaluate potential effects on CD34^+ hematopoietic progenitor cells in peripheral blood. • 3.
(§3) The effect of USB003 on the number of mature blood cells was assessed by the complete blood count with differential, platelet and reticulocyte counts. The effects on early hematopoietic progenitor cells and mature lymphocyte subsets in the periphery were assessed by flow cytometry. In addition, blood was collected and processed to enable culture of progenitors at a later time.
(§4) Red blood cell (RBC) count, RBC indices, white blood cell count (WBC) with differential, reticulocyte count, platelet count, hemoglobin (Hb), hematocrit (Hct), plasma hemoglobin, peripheral flow cytometry, including CD34^+, flow cytometry for enumeration of CD3, CD4, and CD8 lymphocytes, and culture for progenitor cells in peripheral blood including colony-forming units-granulocyte/macrophage (CFU-GM).

[2] = tested on: CD34+ cells in peripheral blood; assay: Flow cytometry of peripheral blood, CD34+ progenitor cells; USB003 SC once daily for 7 days in healthy men; type: in vivo, human; set-up: key to Subjects with shift, Absolute CD34, N-L (normal to low) / Subjects with shift, Absolute CD34, N-H (normal to high) / Subjects with shift, Absolute CD34, L-N (low to normal) / Subjects with shift, Absolute CD34, H-N (high to normal): — signifies subject with no shift from baseline; conditions: for CD34^+, Absolute, Mean at Baseline: Baseline (Day 1)
Description: as §1, §2, §3, §4

Substance: Asp-Arg-Val-Tyr-Ile-His-Pro [USB003]
- CD4, Absolute, Mean at Baseline ([1]; 200 μg/kg): 1122.6 cells/μL
- Subjects with shift, Absolute CD4, H-N (high to normal) ([1]; 200 μg/kg, Baseline to Day 8): 1
- Subjects with shift, Absolute CD4, L-N (low to normal) ([1]; 200 μg/kg, Baseline to Day 8): —
- Subjects with shift, Absolute CD4, N-H (normal to high) ([1]; 200 μg/kg, Baseline to Day 8): —
- Subjects with shift, Absolute CD4, N-L (normal to low) ([1]; 200 μg/kg, Baseline to Day 8): —
- Subjects with shift, Absolute CD4, H-N (high to normal) ([1]; 200 μg/kg, Baseline to Day 20): 1
- Subjects with shift, Absolute CD4, L-N (low to normal) ([1]; 200 μg/kg, Baseline to Day 20): —
- Subjects with shift, Absolute CD4, N-H (normal to high) ([1]; 200 μg/kg, Baseline to Day 20): —
- Subjects with shift, Absolute CD4, N-L (normal to low) ([1]; 200 μg/kg, Baseline to Day 20): —
- CD4, Absolute, Mean Change from Baseline ([1]; 200 μg/kg, Day 3): −88.0 cells/μL
- CD4, Absolute, Mean Change from Baseline ([1]; 200 μg/kg, Day 5): 39.5 cells/μL
- CD4, Absolute, Mean Change from Baseline ([1]; 200 μg/kg, Day 7): 53.6 cells/μL
- CD4, Absolute, Mean Change from Baseline ([1]; 200 μg/kg, Day 8): −24.0 cells/μL
- CD4, Absolute, Mean Change from Baseline ([1]; 200 μg/kg, Day 11): 82.5 cells/μL
- CD4, Absolute, Mean Change from Baseline ([1]; 200 μg/kg, Day 14): 12.1 cells/μL
- CD4, Absolute, Mean Change from Baseline ([1]; 200 μg/kg, Day 17): −70.5 cells/μL
- CD4, Absolute, Mean Change from Baseline ([1]; 200 μg/kg, Day 20): −58.0 cells/μL
- CD4, Absolute, Mean at Baseline ([1]; 300 μg/kg): 734.4 cells/μL
- Subjects with shift, Absolute CD4, H-N (high to normal) ([1]; 300 μg/kg, Baseline to Day 8): —
- Subjects with shift, Absolute CD4, L-N (low to normal) ([1]; 300 μg/kg, Baseline to Day 8): 1
- Subjects with shift, Absolute CD4, N-H (normal to high) ([1]; 300 μg/kg, Baseline to Day 8): —
- Subjects with shift, Absolute CD4, N-L (normal to low) ([1]; 300 μg/kg, Baseline to Day 8): —
- Subjects with shift, Absolute CD4, H-N (high to normal) ([1]; 300 μg/kg, Baseline to Day 20): —
- Subjects with shift, Absolute CD4, L-N (low to normal) ([1]; 300 μg/kg, Baseline to Day 20): —
- Subjects with shift, Absolute CD4, N-H (normal to high) ([1]; 300 μg/kg, Baseline to Day 20): —
- Subjects with shift, Absolute CD4, N-L (normal to low) ([1]; 300 μg/kg, Baseline to Day 20): 1
- CD4, Absolute, Mean Change from Baseline ([1]; 300 μg/kg, Day 3): 109.6 cells/μL
- CD4, Absolute, Mean Change from Baseline ([1]; 300 μg/kg, Day 5): 108.1 cells/μL
- CD4, Absolute, Mean Change from Baseline ([1]; 300 μg/kg, Day 7): 129.3 cells/μL
- CD4, Absolute, Mean Change from Baseline ([1]; 300 μg/kg, Day 8): 31.1 cells/μL
- CD4, Absolute, Mean Change from Baseline ([1]; 300 μg/kg, Day 11): −29.3 cells/μL
- CD4, Absolute, Mean Change from Baseline ([1]; 300 μg/kg, Day 14): 9.7 cells/μL
- CD4, Absolute, Mean Change from Baseline ([1]; 300 μg/kg, Day 17): −40.0 cells/μL
- CD4, Absolute, Mean Change from Baseline ([1]; 300 μg/kg, Day 20): 48.9 cells/μL
- CD34^+, Absolute, Mean at Baseline ([2]; 200 μg/kg): 2.50 cells/μL
- Subjects with shift, Absolute CD34, H-N (high to normal) ([2]; 200 μg/kg, Baseline to Day 8): —
- Subjects with shift, Absolute CD34, L-N (low to normal) ([2]; 200 μg/kg, Baseline to Day 8): —
- Subjects with shift, Absolute CD34, N-H (normal to high) ([2]; 200 μg/kg, Baseline to Day 8): —
- Subjects with shift, Absolute CD34, N-L (normal to low) ([2]; 200 μg/kg, Baseline to Day 8): —
- Subjects with shift, Absolute CD34, H-N (high to normal) ([2]; 200 μg/kg, Baseline to Day 20): —
- Subjects with shift, Absolute CD34, L-N (low to normal) ([2]; 200 μg/kg, Baseline to Day 20): —
- Subjects with shift, Absolute CD34, N-H (normal to high) ([2]; 200 μg/kg, Baseline to Day 20): —
- Subjects with shift, Absolute CD34, N-L (normal to low) ([2]; 200 μg/kg, Baseline to Day 20): —
- CD34^+, Absolute, Mean Change from Baseline ([2]; 200 μg/kg, Day 3): 0.23 cells/μL
- CD34^+, Absolute, Mean Change from Baseline ([2]; 200 μg/kg, Day 5): 0.61 cells/μL
- CD34^+, Absolute, Mean Change from Baseline ([2]; 200 μg/kg, Day 7): 1.11 cells/μL
- CD34^+, Absolute, Mean Change from Baseline ([2]; 200 μg/kg, Day 8): 0.33 cells/μL
- CD34^+, Absolute, Mean Change from Baseline ([2]; 200 μg/kg, Day 11): 0.13 cells/μL
- CD34^+, Absolute, Mean Change from Baseline ([2]; 200 μg/kg, Day 14): 0.61 cells/μL
- CD34^+, Absolute, Mean Change from Baseline ([2]; 200 μg/kg, Day 17): −0.40 cells/μL
- CD34^+, Absolute, Mean Change from Baseline ([2]; 200 μg/kg, Day 20): −0.46 cells/μL
- CD34^+, Absolute, Mean at Baseline ([2]; 300 μg/kg): 2.55 cells/μL
